Publication PMC3082371 (Bioorganic & medicinal chemistry letters, 2008)

Target: h5-HT2A receptor (Homo sapiens, UniProt P28223)
Assay: [3H]ketanserin competitive radioligand binding assay
Settings: h5-HT2A Ki relative to parent compound AMDA (Ki = 20 nM)

Sequence of h5-HT2A receptor (P28223 whole entry): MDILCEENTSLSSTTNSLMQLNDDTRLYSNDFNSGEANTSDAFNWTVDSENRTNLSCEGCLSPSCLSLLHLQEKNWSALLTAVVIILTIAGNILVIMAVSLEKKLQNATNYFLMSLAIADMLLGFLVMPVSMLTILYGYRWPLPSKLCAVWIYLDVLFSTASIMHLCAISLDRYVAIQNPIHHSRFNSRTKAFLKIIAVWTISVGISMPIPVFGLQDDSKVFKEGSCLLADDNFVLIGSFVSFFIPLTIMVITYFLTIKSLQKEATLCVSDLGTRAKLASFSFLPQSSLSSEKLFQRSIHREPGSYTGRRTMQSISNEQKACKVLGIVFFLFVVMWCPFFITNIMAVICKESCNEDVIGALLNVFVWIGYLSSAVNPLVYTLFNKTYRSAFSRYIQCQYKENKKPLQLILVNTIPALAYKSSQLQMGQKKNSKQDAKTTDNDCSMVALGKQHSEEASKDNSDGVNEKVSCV

COc1cccc2c1C(CN)c1ccccc1C2 (stereo not drawn) [Compound 2, 1-methoxy AMDA]
fold decrease in affinity compared to AMDA: > 50 fold

COc1ccc2c(c1)C(CN)c1ccccc1C2 (stereo not drawn) [Compound 3, 2-methoxy-9-aminomethyl-9,10-dihydroanthracene]
fold decrease in affinity compared to AMDA: > 50 fold

COc1cccc2c1Cc1ccccc1C2CN (stereo not drawn) [Compound 5, 4-methoxy-AMDA]
fold decrease in affinity compared to AMDA: 6 fold
